Earlier results as cited in patent publication US20040014955A1, “Identification of essential genes of cryptococcus neoformans and methods of use” (priority 2001, published 2004).
*1 amine or outer side, *2 acyl side, *3 side chain or, on linkers, in order; H or OH if unused. Where a SMILES comes first, the peptide text is derived from it. [ ]: non-standard residue; d: D form. X1 = CC[C@@H](C)[C@@H](O[*:1])C(=O)[*:2]; NMeVal(β-OH) = CN[C@H](C(=O)O)C(C)(C)O; NMeF = CN[C@@H](Cc1ccccc1)C(=O)O; NMeV = CN[C@H](C(=O)O)C(C)C

Test system: C. neoformans
Conditions: weanling outbred rats infected with C. neoformans by direct percranial puncture and inoculation into the cranium

**Q.** Which results are given for `CC[C@@H](C)[C@H]1OC(=O)[C@H](C(C)(C)O)N(C)C(=O)[C@H](CC(C)C)NC(=O)[C@H](C(C)C)N(C)C(=O)[C@H]([C@@H](C)CC)NC(=O)[C@@H]2CCCN2C(=O)[C@H](Cc2ccccc2)N(C)C(=O)[C@H](Cc2ccccc2)NC(=O)[C@H](C(C)C)N(C)C1=O` [LY295337] (cyclo(F[NMeF]PI[NMeV]L[NMeVal(β-OH)][X1][NMeV]))?
**A.** fungal counts in brain tissue: reducing fungal counts in brain tissue; survival: effective in prolonging survival
